# Measurements reported in US8425917B2 (priority 2001, dated 2013).
# Entries after “also recorded” stand apart in the source; their conditions may differ. Read-outs that look alike come from different tables or passages of the source. Square brackets hold non-standard residues; d marks the D form. Peptide text beside a SMILES is read from it. * marks the point of attachment. Sta = CC(C)C[C@H](N)[C@@H](O)CC(=O)O; Isovaleryl = CC(C)CC(=O)*; Cbz = O=C(OCc1ccccc1)*
# Tests used:
# Format in all cases: cell-based, mouse (C57BL/6)
# [1] = tested on: EtxB-mediated epitope delivery in JAWSII cells
# JAWSII cells = tested on: JAWSII cells
# [2] = tested on: EtxB-mediated epitope delivery in JAWSII cells; remark: listed apart in the source
# JAWSII dendritic cells = tested on: JAWSII dendritic cells
# [3] = tested on: MHC-I/SIINFEKL complex on JAWSII cells
molecule,measurement,setting,value
"c1cnc2c(c1)ccc1cccnc12 [1,10-phenanthroline]",effect on EtxB-mediated epitope presentation (conjugate not specified),[1],found to inhibit
CC(C)C[C@@H](C=O)NC(=O)[C@H](CC(C)C)NC(=O)[C@H](CC(C)C)NC(=O)OCc1ccccc1 [MG132] (Cbz-Leu-Leu-Leu-aldehyde),effect on direct loading and presentation of free 8mer peptide,[1],failed to prevent
same,effect on epitope presentation by EtxB-19mer,[1],failed to prevent
same,effect on epitope presentation by EtxB-31mer,[1],completely blocked
CC(C)C[C@H](NC(=O)[C@@H](O)[C@H](N)Cc1ccccc1)C(=O)O [bestatin],effect on EtxB-mediated epitope presentation (conjugate not specified),[1],no significant effects
CC[C@H](C)[C@H](NC(=O)[C@H]([C@@H](C)CC)N(C)C(C)=O)C(=O)N[C@H](C(=O)N[C@@H](CC(C)C)C(=O)[C@@]1(C)CO1)[C@@H](C)O [epoxomicin],effect on direct loading and presentation of free 8mer peptide,[1],no inhibition of epitope presentation was observed
same,effect on epitope presentation by EtxB-19mer,[1],no inhibition of epitope presentation was observed
same,effect on epitope presentation by EtxB-31mer,[1],completely blocked
same,effect on MHC-I/SIINFEKL staining in cells treated with EtxB-19mer,JAWSII cells,normal co-localisation of WGA and MHC-I/SIINFEKL complexes was observed
same,effect on MHC-I/SIINFEKL staining in cells treated with EtxB-31mer,JAWSII cells,no staining with MHC-I/SIINFEKL-specific antibodies was obtained
same,effect on epitope presentation by EtxB-19mer,[2],no inhibition of epitope presentation was observed
same,effect on epitope presentation by EtxB-31mer,[2],completely blocked
CC(=O)N[C@@H](CSC(=O)[C@]1([C@@H](O)C(C)C)NC(=O)[C@H](C)[C@@H]1O)C(=O)O [lactacystin],effect on direct loading and presentation of free 8mer peptide,[1],failed to prevent
same,effect on epitope presentation by EtxB-19mer,[1],failed to prevent
same,effect on epitope presentation by EtxB-31mer,[1],completely blocked
CC(=O)N[C@@H](CC(C)C)C(=O)N[C@@H](CC(C)C)C(=O)N[C@H](C=O)CCCNC(=N)N [leupeptin],effect on EtxB-mediated epitope presentation (conjugate not specified),[1],no significant effects
CC[C@@]1([C@@H]2O[C@@H]([C@H]3O[C@@](O)(CO)[C@H](C)C[C@@H]3C)C[C@@H]2C)CC[C@H]([C@]2(C)CC[C@]3(C[C@H](O)[C@@H](C)[C@@H]([C@@H](C)[C@@H](OC)[C@H](C)C(=O)O)O3)O2)O1 [monensin],effect on EtxB-mediated epitope presentation (conjugate not specified),[1],prevented; also recorded: inhibited
same,effect on direct loading and presentation of free 8mer peptide,[1],unaffected
CC(C)CC(=O)N[C@H](C(=O)N[C@H](C(=O)N[C@@H](CC(C)C)[C@@H](O)CC(=O)N[C@@H](C)C(=O)N[C@@H](CC(C)C)[C@@H](O)CC(=O)O)C(C)C)C(C)C [pepstatin] (Isovaleryl-VV[Sta]A[Sta]-OH),effect on extent of EtxB-mediated presentation of the 26mer peptide,[1],no effect
Bafilomycin A1 [BafA1],effect on EtxB-mediated epitope presentation (conjugate not specified),[1],inhibited
same,effect on direct loading and presentation of free 8mer peptide,[1],did not inhibit
same,"effect on epitope delivery by EtxB-9mer, -16mer, -19mer, -26mer and -26mer* conjugates",[1],complete inhibition
same,effect on epitope presentation by EtxB-31mer,[1],prevented
same,effect on MHC-I/SIINFEKL complexes in cells treated with EtxB-19mer or EtxB-31mer,JAWSII cells,no detectable MHC-I/SIINFEKL complexes were observed
same,"effect on epitope delivery by EtxB-9mer, -16mer, -19mer, -26mer and -26mer* conjugates",[2],complete inhibition
same,effect on epitope presentation by EtxB-31mer,[2],prevented
Brefeldin A [BFA],effect on direct loading and presentation of free 8mer peptide,[1],did not inhibit
same,"effect on epitope delivery by EtxB-9mer, -16mer, -19mer, -26mer and -26mer* conjugates",[1],complete inhibition
same,effect on epitope presentation by EtxB-31mer,[1],prevented
same,effect on MHC-I/SIINFEKL complexes in cells treated with EtxB-19mer or EtxB-31mer,JAWSII cells,no detectable MHC-I/SIINFEKL complexes were observed
same,"effect on epitope delivery by EtxB-9mer, -16mer, -19mer, -26mer and -26mer* conjugates",[2],complete inhibition
same,effect on epitope presentation by EtxB-31mer,[2],prevented
CAVGAGATAEESIINFEKL [19mer],extent of class I epitope presentation (IL-2 release),JAWSII dendritic cells,virtually no presentation occurred
CSIINFEKL [9mer],extent of class I epitope presentation (IL-2 release),JAWSII dendritic cells,significantly stimulated class I presentation
SIINFEKL [8mer],MHC-I/SIINFEKL complexes (shift in fluorescence),[3],clear and similar shift in fluorescence
same,extent of class I epitope presentation (IL-2 release),JAWSII dendritic cells,significantly stimulated class I presentation
same,kinetics of class I peptide presentation (in words),JAWSII dendritic cells,peptide presentation at the earliest time point tested
